Experimental data: article PMC12028158, “Synthesis and In Vitro Evaluation of the Anticancer Effect of Novel Phosphonium Vindoline Derivatives” (International Journal of Molecular Sciences, 2025)
Read-outs that look alike come from different tables or passages of the source.

Assays:
Assay type in all cases: cell-based
[1] = system: SW-620; experiment: NCI60 one-dose screen; settings: Homo sapiens, SW-620, read-out: Growth percent
[2] = system: MOLT-4; experiment: NCI60 one-dose screen; settings: Homo sapiens, MOLT-4, read-out: Growth percent
[3] = system: OVCAR-5; experiment: NCI60 five-dose screen; settings: Homo sapiens, OVCAR-5
[4] = system: MOLT-4; experiment: NCI60 five-dose screen; settings: Homo sapiens, MOLT-4
[5] = system: Non-small Cell Lung Cancer panel; experiment: NCI60 five-dose screen, panel mean; settings: Homo sapiens
[6] = system: HOP-92; experiment: NCI60 one-dose screen; settings: Homo sapiens, HOP-92, read-out: Growth percent
[7] = system: NCI-H322M; experiment: NCI60 five-dose screen; settings: Homo sapiens
[8] = system: MDA-MB-231/ATCC; experiment: NCI60 one-dose screen; settings: Homo sapiens, MDA-MB-231, read-out: Growth percent
[9] = system: SF-539; experiment: NCI60 five-dose screen; settings: Homo sapiens, SF-539
[10] = system: 786-0; experiment: NCI60 five-dose screen; settings: Homo sapiens, 786-0
[11] = system: T-47D; experiment: NCI60 one-dose screen; settings: Homo sapiens, T47D, read-out: Growth percent
[12] = system: Melanoma panel; experiment: NCI60 five-dose screen, panel mean; settings: Homo sapiens
[13] = system: OVCAR-3; experiment: NCI60 one-dose screen; settings: Homo sapiens, OVCAR-3, read-out: Growth percent
[14] = system: SK-MEL-28; experiment: NCI60 one-dose screen; settings: Homo sapiens, SK-MEL-28, read-out: Growth percent
[15] = system: BT-549; experiment: NCI60 one-dose screen; settings: Homo sapiens, BT-549, read-out: Growth percent
[16] = system: BT-549; experiment: NCI60 five-dose screen; settings: Homo sapiens, BT-549
[17] = system: SR; experiment: NCI60 one-dose screen; settings: Homo sapiens, read-out: Growth percent
[18] = system: OVCAR-8; experiment: NCI60 five-dose screen; settings: Homo sapiens, OVCAR-8
[19] = system: PC-3; experiment: NCI60 five-dose screen; settings: Homo sapiens, PC-3
[20] = system: RXF 393; experiment: NCI60 one-dose screen; settings: Homo sapiens, RXF 393, read-out: Growth percent
[21] = system: SF-295; experiment: NCI60 one-dose screen; settings: Homo sapiens, SF-295, read-out: Growth percent
[22] = system: UACC-257; experiment: NCI60 one-dose screen; settings: Homo sapiens, UACC-257, read-out: Growth percent
[23] = system: Renal Cancer panel; experiment: NCI60 five-dose screen, panel mean; settings: Homo sapiens
[24] = system: KM12; experiment: NCI60 one-dose screen; settings: Homo sapiens, KM12, read-out: Growth percent
[25] = system: HCC-2998; experiment: NCI60 one-dose screen; settings: Homo sapiens, HCC 2998, read-out: Growth percent
[26] = system: HCT-15; experiment: NCI60 one-dose screen; settings: Homo sapiens, HCT-15, read-out: Growth percent
[27] = system: 786-0; experiment: NCI60 one-dose screen; settings: Homo sapiens, 786-0, read-out: Growth percent
[28] = system: M14; experiment: NCI60 five-dose screen; settings: Homo sapiens, M14
[29] = system: SK-OV-3; experiment: NCI60 one-dose screen; settings: Homo sapiens, SK-OV-3, read-out: Growth percent
[30] = system: RPMI-8226; experiment: NCI60 one-dose screen; settings: Homo sapiens, RPMI-8226, read-out: Growth percent
[31] = system: PC-3; experiment: NCI60 one-dose screen; settings: Homo sapiens, PC-3, read-out: Growth percent
[32] = system: LOX IMVI; experiment: NCI60 five-dose screen; settings: Homo sapiens
[33] = system: SNB-75; experiment: NCI60 one-dose screen; settings: Homo sapiens, SNB-75, read-out: Growth percent
[34] = system: Colon Cancer panel; experiment: NCI60 five-dose screen, panel mean; settings: Homo sapiens
[35] = system: A498; experiment: NCI60 one-dose screen; settings: Homo sapiens, A498, read-out: Growth percent
[36] = system: CAKI-1; experiment: NCI60 one-dose screen; settings: Homo sapiens, CAKI-1, read-out: Growth percent
[37] = system: OVCAR-4; experiment: NCI60 one-dose screen; settings: Homo sapiens, OVCAR-4, read-out: Growth percent
[38] = system: NCI-H522; experiment: NCI60 one-dose screen; settings: Homo sapiens, NCI-H522, read-out: Growth percent
[39] = system: HT29; experiment: NCI60 five-dose screen; settings: Homo sapiens, HT-29
[40] = system: SNB-19; experiment: NCI60 five-dose screen; settings: Homo sapiens, SNB-19
[41] = system: NCI/ADR-RES; experiment: NCI60 five-dose screen; settings: Homo sapiens
[42] = system: OVCAR-8; experiment: NCI60 one-dose screen; settings: Homo sapiens, OVCAR-8, read-out: Growth percent
[43] = system: TK-10; experiment: NCI60 one-dose screen; settings: Homo sapiens, TK-10, read-out: Growth percent
[44] = system: K-562; experiment: NCI60 five-dose screen; settings: Homo sapiens, K562
[45] = system: MDA-MB-468; experiment: NCI60 one-dose screen; settings: Homo sapiens, MDA-MB-468, read-out: Growth percent

Work on `CC[C@]12C=CCN3CC[C@@]4(c5ccc(OC)cc5N(C)[C@H]4[C@@](O)(C(=O)OC)[C@@H]1OC(=O)CCCC[P+](c1ccc(OC)cc1)(c1ccc(OC)cc1)c1ccc(OC)cc1)[C@@H]32` [10b] yielded an activity at 10 µM [1] of -88.7%, an activity at 10 µM [2] of -26.2% and a GI50 [3] of 2.13 µM. For the same compound, the GI50 [4] was 1180 nM, the GI50 ([5]; read-out: GI50 Mean) was 1.36 µM and the activity at 10 µM [6] was -74.5%. For the same compound, the GI50 [7] was 2.79 µM, the activity at 10 µM [8] was -97.4% and the GI50 [9] was 1520 nM. For the same compound, the GI50 [10] was 2.59 µM, the activity at 10 µM [11] was -46.6% and the GI50 ([12]; read-out: GI50 Mean) was 980 nM. It also gave an activity at 10 µM [13] of -71.8%, an activity at 10 µM [14] of -96.8% and an activity at 10 µM [15] of -96.7%. For the same compound, the GI50 [16] was 1250 nM, the activity at 10 µM [17] was 23.2% and the GI50 [18] was 1990 nM. The GI50 [19] was 562 nM, the activity at 10 µM [20] was -90.4% and the activity at 10 µM [21] was -93.6%. It also gave an activity at 10 µM [22] of -93.4%, a GI50 ([23]; read-out: GI50 Mean) of 4.34 µM and an activity at 10 µM [24] of -68.8%. The activity at 10 µM [25] was -88.4%, the activity at 10 µM [26] was -5.69% and the activity at 10 µM [27] was -92.9%. It also gave a GI50 [28] of 1200 nM, an activity at 10 µM [29] of -82.5% and an activity at 10 µM [30] of -68.8%. For the same compound, the activity at 10 µM [31] was -37.2%, the GI50 [32] was 1110 nM and the activity at 10 µM [33] was -95.4%. It also gave a GI50 ([34]; read-out: GI50 Mean) of 1.88 µM, an activity at 10 µM [35] of -54.7% and an activity at 10 µM [36] of -78.5%. The activity at 10 µM [37] was -37.7%, the activity at 10 µM [38] was -81.9% and the GI50 [39] was 511 nM. For the same compound, the GI50 [40] was 484 nM, the GI50 [41] was 20.5 µM and the activity at 10 µM [42] was -90.2%. The activity at 10 µM [43] was -88.2%, the GI50 [44] was 675 nM and the activity at 10 µM [45] was -92.7%.
With `CC[C@]12C=CCN3CC[C@@]4(c5ccc(OC)cc5N(C)[C@H]4[C@@](O)(C(=O)OC)[C@@H]1OC(=O)CCC[P+](C1CCCCC1)(C1CCCCC1)C1CCCCC1)[C@@H]32` [9d] the activity at 10 µM [1] was 3.91%, the activity at 10 µM [2] was 2.35% and the GI50 [3] was 3.19 µM. It also gave a GI50 [4] of 2160 nM, a GI50 ([5]; read-out: Mean GI50) of 3.67 µM and an activity at 10 µM [6] of -43.8%. The GI50 [7] was 5.79 µM, the activity at 10 µM [8] was -90.8% and the GI50 [9] was 2940 nM. For the same compound, the GI50 [10] was 4.45 µM, the activity at 10 µM [11] was -1.81% and the GI50 ([12]; read-out: Mean GI50) was 1700 nM. The activity at 10 µM [13] was -48.6%, the activity at 10 µM [14] was -85.9% and the activity at 10 µM [15] was -97.4%. For the same compound, the GI50 [16] was 2440 nM, the activity at 10 µM [17] was 29.1% and the GI50 [18] was 2970 nM. It also gave a GI50 [19] of 1710 nM, an activity at 10 µM [20] of -70.3% and an activity at 10 µM [21] of -13.6%. It also gave an activity at 10 µM [22] of -80.9%, a GI50 ([23]; read-out: Mean GI50) of 7.93 µM and an activity at 10 µM [24] of -63.4%. The activity at 10 µM [25] was -92.6%, the activity at 10 µM [26] was 76.6% and the activity at 10 µM [27] was -16.2%. The GI50 [28] was 1920 nM, the activity at 10 µM [29] was -7.72% and the activity at 10 µM [30] was -43.5%. For the same compound, the activity at 10 µM [31] was -12%, the GI50 [32] was 2880 nM and the activity at 10 µM [33] was -61.4%. The GI50 ([34]; read-out: Mean GI50) was 3.82 µM, the activity at 10 µM [35] was 21.8% and the activity at 10 µM [36] was -8.49%. It also gave an activity at 10 µM [37] of 17.7%, an activity at 10 µM [38] of -82.2% and a GI50 [39] of 1880 nM. The GI50 [40] was 2220 nM, the GI50 [41] was 35.6 µM and the activity at 10 µM [42] was 1.19%. The activity at 10 µM [43] was -48.6%, the GI50 [44] was 1320 nM and the activity at 10 µM [45] was -79.6%.
In the case of `CC[C@]12C=CCN3CC[C@@]4(c5ccc(OC)cc5N(C)[C@H]4[C@@](O)(C(=O)OC)[C@@H]1OC(=O)CCC[P+](c1ccc(F)cc1)(c1ccc(F)cc1)c1ccc(F)cc1)[C@@H]32` [9c], the activity at 10 µM [1] is reported as 45.3%, the activity at 10 µM [2] is reported as 37.1% and the GI50 [3] is reported as 20.8 µM. The GI50 [4] was 9690 nM, the GI50 ([5]; read-out: Mean GI50) was 19.6 µM and the activity at 10 µM [6] was -6.2%. For the same compound, the GI50 [7] was > 48.5 µM, the activity at 10 µM [8] was 22% and the GI50 [9] was 16800 nM. The GI50 [10] was > 48.5 µM, the activity at 10 µM [11] was 10.4% and the GI50 ([12]; read-out: Mean GI50) was 8130 nM. It also gave an activity at 10 µM [13] of 21.1%, an activity at 10 µM [14] of -24.1% and an activity at 10 µM [15] of -9.4%. For the same compound, the GI50 [16] was 8130 nM, the activity at 10 µM [17] was 42.6% and the GI50 [18] was 18400 nM. The GI50 [19] was 12600 nM, the activity at 10 µM [20] was -10.4% and the activity at 10 µM [21] was 85%. It also gave an activity at 10 µM [22] of -34.3%, a GI50 ([23]; read-out: Mean GI50) of 34.2 µM and an activity at 10 µM [24] of 21.3%. It also gave an activity at 10 µM [25] of 22.4%, an activity at 10 µM [26] of 99.6% and an activity at 10 µM [27] of 80.9%. It also gave a GI50 [28] of 9100 nM, an activity at 10 µM [29] of 54.7% and an activity at 10 µM [30] of 24.4%. It also gave an activity at 10 µM [31] of 16.7%, a GI50 [32] of 16600 nM and an activity at 10 µM [33] of 39.9%. The GI50 ([34]; read-out: Mean GI50) was 16.8 µM, the activity at 10 µM [35] was 101% and the activity at 10 µM [36] was 73.1%. For the same compound, the activity at 10 µM [37] was 48.6%, the activity at 10 µM [38] was -17.7% and the GI50 [39] was 12500 nM. The GI50 [40] was 11400 nM, the GI50 [41] was > 48.5 µM and the activity at 10 µM [42] was 28%. The activity at 10 µM [43] was 63.9%, the GI50 [44] was 9830 nM and the activity at 10 µM [45] was -74.6%.
